Data on 1 compound can be found in US20230226021A1, “ORAL FORMULATIONS OF PYRROLIDINE DERIVATIVES” (ObsEva S.A., priority 2013, published 2023).

The data set can be described thus: Qualitative solubility/crystallisation tests on 15 mg scale. Type of data set: physicochemical. From the text:
The E/Z ratio pre and post dry-flash remain in the range of 30/70 to 40/60. Furthermore, such an approach should be considered on the basis of the scale at which the operation has to be carried out. On a 20 L scale, this operation would not be a time saving approach.

Turning to `CO/N=C1/C[C@@H](CO)N(C(=O)c2ccc(-c3ccccc3C)cc2)C1` [(3Z,5S), (3Z,5S)-5-(hydroxymethyl)-1-[(2′-methyl-1,1′-biphenyl-4-yl)carbonyl]pyrrolidin-3-one-O-methyloxime], the “Qualitative solubility, Dissolves in” value reads like this: (DIPE, hot) 40 vol hot; (IPA, hot) 4 vol hot; (MIBK, hot) 4 vol hot; (THF, cold) 4 vol cold; (tBuOH, hot) 6 vol hot; (toluene, cold) 2 vol cold. For the same compound, for the setting “heptanes”, the “Qualitative solubility, Dissolves in / Comment” value is listed as “insoluble in 20 vol”.
